Read-outs that look alike come from different tables or passages of the source.
Tests used:
TRP2-specific CTL = assay: CTL inducibility of TRP2 peptide vaccine with adjuvant (tetramer staining); assay type: in vivo, C57BL/6JJcl mice
Protocol: C57BL/6JJcl mice (6 to 8 weeks old) were purchased from CLEA Japan, Inc.
an adjuvant of the present invention or the well-known CpG ODN
The specific immunity was induced by vaccinating a mouse twice at 7 days intervals. Each vaccine was that 100 μg of TRP2 peptide, and 1.57 or 4.71 nmol of an adjuvant of the present invention or well-known CpG ODN, were dissolved in 1×PBS. 100 μL of the vaccine was administered subcutaneous injection on the flank of a mouse.
100 μL of the emulsion vaccine was administered subcutaneous injection on the flank of a mouse twice at 7 days intervals.
On 7 days after second vaccination, the blood was collected, red blood cells was removed by BD Pharm Lyse (BD pharmingen), and the white blood cells were suspended in FACS buffer (1% fetal bovine serum, 2 mM PBS with EDTA). Anti-mouse CD16/32 monoclonal antibody (BioXcell) was added thereto, and Fc receptor blocking was carried out at 4° C. for 30 minutes. […] Then, staining was carried out with DAPI (Invitrogen) and the cells were washed twice with FACS buffer. It was resuspended in FACS buffer and analyzed by FACS verse Flow Cytometer (BD bioscience) and FAC Suite software (BD bioscience). For analysis, after DAPI negative fraction was gated, white blood cells fraction were provided using forward and side-way scattering as indicators. In the white blood cells fraction, both positive cells of Alexa 647-CD8 and PE-H-2Kb Tetramer were defined as CTLs. CTL ratio in white blood cells was used for evaluation.
After calculation of the average CTL inducibility of each group per experiment, the ratio against average value of CTL inducibility of ssCpG ODN, ODN1826 (SEQ-1) or ODN2006 (SEQ-49) as a control was calculated.
In the case of an adjuvant comprising ODN1826 (Average of CTL inducibility of the adjuvant group)/(Average of CTL inducibility of the ODN1826 group)=the ratio against average value In the case of an adjuvant comprising ODN2006 (Average of CTL inducibility of the adjuvant group)/(Average of CTL inducibility of the ODN2006 group)=the ratio against average value
CTL inducibility of each adjuvant was shown when CTL inducibility of ssCpG ODN was taken as 1, so the bigger value means the higher CTL inducibility.

human TLR9 = target: T1, human TLR9 (Homo sapiens, UniProt Q9NR96); assay: Reporter assay with HEK-Blue hTLR9 cells (TLR9 agonist activity); assay type: cell-based; details: HEK-Blue hTLR9 cells, 16 hours
T1 construct: host or cells: HEK-Blue hTLR9 cells (HEK293)
T1 sequence (Q9NR96 26-1032): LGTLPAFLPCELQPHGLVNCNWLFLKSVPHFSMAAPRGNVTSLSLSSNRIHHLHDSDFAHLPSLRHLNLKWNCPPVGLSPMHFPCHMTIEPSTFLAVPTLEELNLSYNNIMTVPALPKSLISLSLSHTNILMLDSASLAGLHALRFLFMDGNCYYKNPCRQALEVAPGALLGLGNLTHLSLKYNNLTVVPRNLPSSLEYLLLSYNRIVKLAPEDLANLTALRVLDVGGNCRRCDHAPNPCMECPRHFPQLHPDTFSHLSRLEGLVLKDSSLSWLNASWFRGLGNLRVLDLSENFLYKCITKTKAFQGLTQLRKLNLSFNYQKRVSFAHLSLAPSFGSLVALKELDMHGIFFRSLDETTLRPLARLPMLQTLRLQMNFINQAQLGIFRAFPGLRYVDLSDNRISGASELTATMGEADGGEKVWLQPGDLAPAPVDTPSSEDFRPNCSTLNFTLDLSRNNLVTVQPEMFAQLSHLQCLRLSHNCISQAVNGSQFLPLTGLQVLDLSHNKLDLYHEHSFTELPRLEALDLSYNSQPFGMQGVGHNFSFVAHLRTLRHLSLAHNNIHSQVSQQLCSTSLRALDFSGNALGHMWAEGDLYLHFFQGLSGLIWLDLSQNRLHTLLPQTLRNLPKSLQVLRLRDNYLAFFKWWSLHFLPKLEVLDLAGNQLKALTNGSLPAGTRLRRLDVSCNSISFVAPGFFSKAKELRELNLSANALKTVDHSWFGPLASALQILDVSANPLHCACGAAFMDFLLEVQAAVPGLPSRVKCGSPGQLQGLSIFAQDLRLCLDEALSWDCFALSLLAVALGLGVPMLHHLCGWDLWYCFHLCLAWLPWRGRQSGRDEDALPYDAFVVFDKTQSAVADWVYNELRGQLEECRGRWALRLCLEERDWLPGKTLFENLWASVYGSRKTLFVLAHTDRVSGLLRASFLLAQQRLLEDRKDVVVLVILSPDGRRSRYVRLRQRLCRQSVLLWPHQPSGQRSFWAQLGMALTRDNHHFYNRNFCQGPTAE
Protocol: HEK-Blue™ hTLR9 cells (Invivogen) used for the reporter assay were made by introducing human TLR9 gene and a reporter gene that secretory alkaline phosphatase gene bound to NF-kB-AP-1 binding region sequence in HEK293 cells, and are the cells stably expressing the both genes. 3.6×10^4 of the cells suspended in HEK-Blue™ Detection ([…]) comprising substrates against the alkaline phosphatase were seeded on the 96 well plate, and 3 nM to 30 μM of a lipid binding double-stranded oligonucleotide of the present invention, the known CpG oligonucleotides (ODN2006, SEQ-49), or adjuvant based on design in Patent Document 1, i.e., ssCpG ODN introducing a lipid ligand (SEQ-142, 143 or 144) was added. After culturing in a 37° C., 5% CO2 incubator for 16 hours, absorbency at 620 nm was measured using the culture supernatant developed a color. The result value was analyzed with TIBCO Spotfire software, and calculated the 50% effective concentration (EC50) of each oligonucleotide.

With Amph1826 [SEQ-2] the “Ratio of average value of antigen-specific CTL” value (“Ratio … of antigen-specific CTL” for short) (TRP2-specific CTL; Table 34, 1.57 nmol/head, ODN1826 (SEQ-1) group = 1) was 1.68, the “Ratio … of antigen-specific CTL” value (TRP2-specific CTL; Table 36, 1.57 nmol/head (Montanide 100 μL), ODN1826 (SEQ-1) group = 1) was 3.23 and the “Ratio … of antigen-specific CTL” value (TRP2-specific CTL; Table 37, 1.57 nmol/head, ODN1826 (SEQ-1) group = 1) was 3.11. The “CTL inducibility (in words)” value (TRP2-specific CTL; adjuvants comprising ODN1826) was “higher CTL inducibility than ODN1826”.

In the case of ODN2006 [SEQ-49], the “Ratio … of antigen-specific CTL” value (TRP2-specific CTL; Table 38, 4.71 nmol/head, ODN2006 (SEQ-49) group = 1) is reported as 1.00, the “Ratio … of antigen-specific CTL” value (TRP2-specific CTL; Table 39, 4.71 nmol/head, ODN2006 (SEQ-49) group = 1) is reported as 1.00 and the “Ratio … of antigen-specific CTL” value (TRP2-specific CTL; Table 40, 4.71 nmol, ODN2006 (SEQ-49) group = 1) is reported as 1.00. For the same substance, the “Ratio … of antigen-specific CTL” value (TRP2-specific CTL; Table 41, 4.71 nmol, ODN2006 (SEQ-49) group = 1) was 1.00, the “Ratio … of antigen-specific CTL” value (TRP2-specific CTL; Table 42, 4.71 nmol, ODN2006 (SEQ-49) group = 1) was 1.00 and the “Ratio … of antigen-specific CTL” value (TRP2-specific CTL; Table 43, 4.71 nmol, ODN2006 (SEQ-49) group = 1) was 1.00. For the same substance, the “Ratio … of antigen-specific CTL” value (TRP2-specific CTL; Table 44, 4.71 nmol, ODN2006 (SEQ-49) group = 1) was 1.00, the “Ratio … of antigen-specific CTL” value (TRP2-specific CTL; Table 45, 4.71 nmol, ODN2006 (SEQ-49) group = 1) was 1.00 and the “Ratio … of antigen-specific CTL” value (TRP2-specific CTL; Table 46, 4.71 nmol, ODN2006 (SEQ-49) group = 1) was 1.00. The “Ratio … of antigen-specific CTL” value (TRP2-specific CTL; Table 47, 4.71 nmol, ODN2006 (SEQ-49) group = 1) was 1.00, the “Ratio … of antigen-specific CTL” value (TRP2-specific CTL; Table 48, 4.71 nmol, ODN2006 (SEQ-49) group = 1) was 1.00 and the “Ratio … of antigen-specific CTL” value (TRP2-specific CTL; Table 49, 4.71 nmol, ODN2006 (SEQ-49) group = 1) was 1.00. For the same substance, the “Ratio … of antigen-specific CTL” value (TRP2-specific CTL; Table 50, 4.71 nmol, ODN2006 (SEQ-49) group = 1) was 1.00, the “Ratio … of antigen-specific CTL” value (TRP2-specific CTL; Table 51, 4.71 nmol, ODN2006 (SEQ-49) group = 1) was 1.00 and the “Ratio … of antigen-specific CTL” value (TRP2-specific CTL; Table 52, 4.71 nmol, ODN2006 (SEQ-49) group = 1) was 1.00. For the same substance, the “Ratio … of antigen-specific CTL” value (TRP2-specific CTL; Table 53, 4.71 nmol, ODN2006 (SEQ-49) group = 1) was 1.00, the “Ratio … of antigen-specific CTL” value (TRP2-specific CTL; Table 54, 4.71 nmol, ODN2006 (SEQ-49) group = 1) was 1.00 and the “Ratio … of antigen-specific CTL” value (TRP2-specific CTL; Table 55, 4.71 nmol, ODN2006 (SEQ-49) group = 1) was 1.00. For the same substance, the “Ratio … of antigen-specific CTL” value (TRP2-specific CTL; Table 57, 4.71 nmol, ODN2006 (SEQ-49) group = 1) was 1.00, the “Ratio … of antigen-specific CTL” value (TRP2-specific CTL; Table 58, 4.71 nmol, ODN2006 (SEQ-49) group = 1) was 1.00 and the “Ratio … of antigen-specific CTL” value (TRP2-specific CTL; Table 59, 4.71 nmol, ODN2006 (SEQ-49) group = 1) was 1.00. The “Ratio … of antigen-specific CTL” value (TRP2-specific CTL; Table 60, 4.71 nmol, ODN2006 (SEQ-49) group = 1) was 1.00, the “Ratio … of antigen-specific CTL” value (TRP2-specific CTL; Table 61, 4.71 nmol, ODN2006 (SEQ-49) group = 1) was 1.00 and the “Ratio … of antigen-specific CTL” value (TRP2-specific CTL; Table 62, 4.71 nmol, ODN2006 (SEQ-49) group = 1) was 1.00. The “Ratio … of antigen-specific CTL” value (TRP2-specific CTL; Table 63, 4.71 nmol, ODN2006 (SEQ-49) group = 1) was 1.00, the “Ratio of average value of antigen specific CTL” value (TRP2-specific CTL; Table 64, 4.71 nmol, ODN2006 (SEQ-49) group = 1) was 1.00 and the “Ratio … of antigen-specific CTL” value (TRP2-specific CTL; Table 67, 4.71 nmol, ODN2006 (SEQ-49) group = 1) was 1.00. For the same substance, the “Ratio … of antigen-specific CTL” value (TRP2-specific CTL; Table 68, 4.71 nmol, ODN2006 (SEQ-49) group = 1) was 1.00, the EC50 (human TLR9; Experiment 1 (Table 28), read-out: EC50) was 0.467 µM and the EC50 (human TLR9; Experiment 1, Table 28, read-out: EC50 value) was about 0.467 µM. The EC50 (human TLR9; Experiment 2 (Table 29), read-out: EC50) was 0.245 µM and the EC50 (human TLR9; Experiment 2, Table 29, read-out: EC50 value) was about 0.245 µM.
